The subject of assay [1] is Puccinia recondita. The assay is described as follows: Fungicidal activity against wheat leaf rust (WLR) disease, control value. It counts as in vivo. The following applies: for pest or weed control at 2 ppm / pest or weed control at 10 ppm / pest or weed control at 50 ppm / pest or weed control at 100 ppm: read-out: WLR control value (C.V.).
For assay [2], the system named is Botrytis cinerae. The assay is described as follows: Fungicidal activity against cucumber gray mold rot (CGM) disease, control value. The assay is classed as in vivo. As to conditions: for pest or weed control at 50 ppm / pest or weed control at 100 ppm: Botrytis, read-out: CGM control value (C.V.); for pest or weed control at 100 ppm / CGM control value (C.V.): 100 ppm.

Assay [3] concerns Phytophthora infestans. The assay is described as follows: whole plant or invertebrate. It counts as in vivo. The following applies: for pest or weed control at 2 ppm / pest or weed control at 10 ppm / pest or weed control at 50 ppm / pest or weed control at 100 ppm: Phytophthora infestans, in Solanum lycopersicum, read-out: TLB control value (C.V.).
Assay [4] has as its system Erysiphae graminis. Briefly: Fungicidal activity against barley powdery mildew (BPM) disease, control value. The assay is classed as in vivo. As to conditions: for pest or weed control at 2 ppm / pest or weed control at 10 ppm / pest or weed control at 50 ppm / pest or weed control at 100 ppm: 168 h, read-out: BPM control value (C.V.).
Assay [5] has as its system Rhizoctonia solani AG-1. Briefly: Fungicidal activity against rice sheath blight (RSB) disease, control value. As to conditions: for pest or weed control at 2 ppm / pest or weed control at 10 ppm / pest or weed control at 50 ppm / pest or weed control at 100 ppm: Rhizoctonia solani, AG1, in Oryza sativa, read-out: RSB control value (C.V.).
For assay [6], the system named is Pyricularia oryzae Carvara KA301. The assay is described as follows: whole plant or invertebrate. The assay is classed as in vivo. The following applies: for pest or weed control at 2 ppm / pest or weed control at 10 ppm / pest or weed control at 50 ppm / pest or weed control at 100 ppm: Pyricularia oryzae, read-out: RCB control value (C.V.).
Where [7] appears, read: Hordeum vulgare, 2 ppm, barley powdery mildew.
[8] abbreviates: Hordeum vulgare, 10 ppm, barley powdery mildew.
The mark [9] stands for this setting: Hordeum vulgare, 50 ppm, barley powdery mildew.
Where [10] appears, read: Hordeum vulgare, 100 ppm, barley powdery mildew.

Read-outs that look alike come from different tables or passages of the source.

With `CO/N=C(/C(=O)OC)c1ccccc1COc1cccc(C=C(Br)Br)c1Cl` [Example 67, methyl-(E)-2-(2-((3-(2,2-dibromovinyl)-2-chlorophenoxy)methyl)phenyl)-2-methoxyiminoacetate], the pest or weed control at 2 ppm stood at 100% in assay [1] (Puccinia recondita, 2 ppm); 99% in assay [3]; 100% in assay [4] (2 ppm); 100% in assay [5]; 100% in assay [6]. Also, the pest or weed control at 10 ppm in assay [1] (Puccinia recondita, 10 ppm) is 100%; in assay [3], 100%; in assay [4] (10 ppm), 100%; in assay [5], 100%; in assay [6], 100%. Also, the pest or weed control at 50 ppm came out at 100% in assay [1] (Puccinia recondita, 50 ppm); 40% in assay [2]; 100% in assay [3]; 100% in assay [4] (50 ppm); 100% in assay [5]; 100% in assay [6]. In addition, the pest or weed control at 100 ppm in assay [1] (Puccinia recondita, 100 ppm) turned out to be 100%; in assay [2], 85%; in assay [3], 100%; in assay [4] (100 ppm), 100%; in assay [5], 100%; in assay [6], 100%.
In the case of `CNC(=O)/C(=N/OC)c1ccccc1COc1ccc(C=C(Br)Br)cc1` [Example 8, (E)-2-(2-((4-(2,2-dibromovinyl)phenoxy)methyl)phenyl)-2-methoxyimino-N-methylacetamide], the pest or weed control at 2 ppm in assay [1] (2 ppm, wheat leaf rust) turned out to be 90%; in assay [3] it was 98%; in assay [4] (setting [7]), 99%; in assay [6], 90%. Moreover, the pest or weed control at 10 ppm in assay [1] (10 ppm, wheat leaf rust) was 90%; in assay [3], 100%; in assay [4] (setting [8]) it was 100%; in assay [6] it was 97%. Also, the pest or weed control at 50 ppm in assay [1] (50 ppm, wheat leaf rust) came out at 98%; in assay [3], 100%; in assay [4] (setting [9]), 100%; in assay [6], 100%. The pest or weed control at 100 ppm stood at 100% in assay [1] (100 ppm, wheat leaf rust); 7% in assay [2] (cucumber gray mold rot); 100% in assay [3]; 100% in assay [4] (setting [10]); 32% in assay [5]; 100% in assay [6].
In the case of `CO/N=C(/C(=O)OC)c1ccccc1COc1cccc(C=C(Cl)Cl)c1Cl` [Example 43, methyl-(E)-2-(2-((2-chloro-3-(2,2-dichlorovinyl)phenoxy)methyl)phenyl)-2-methoxyiminoacetate], the pest or weed control at 2 ppm amounted to 100% in assay [1] (2 ppm, wheat leaf rust); 100% in assay [3]; 100% in assay [4] (setting [7]); 90% in assay [5]; 90% in assay [6]. The pest or weed control at 10 ppm in assay [1] (10 ppm, wheat leaf rust) is 100%; in assay [3] it was 100%; in assay [4] (setting [8]), 100%; in assay [5], 100%; in assay [6], 99%. For the same compound, the pest or weed control at 50 ppm in assay [1] (50 ppm, wheat leaf rust) worked out at 100%; in assay [3] it was 100%; in assay [4] (setting [9]), 100%; in assay [5], 100%; in assay [6] it was 100%. For the same compound, the pest or weed control at 100 ppm was 100% in assay [1] (100 ppm, wheat leaf rust); 0% in assay [2] (cucumber gray mold rot); 100% in assay [3]; 100% in assay [4] (setting [10]); 100% in assay [5]; 100% in assay [6].
With `CNC(=O)/C(=N/OC)c1ccccc1COc1ccc(C=C(F)Cl)cc1` [Example 14, (2E)-2-(2-((4-(2-chloro-2-difluorovinyl)phenoxy)methyl)phenyl)-2-methoxyimino-N-methylacetamide], the “WLR control value (C.V.)” value in assay [1] (100 ppm, wheat leaf rust) is given as 72%. The “CGM control value (C.V.)” value in assay [2] (cucumber gray mold rot) came to 40%. The “TLB control value (C.V.)” value in assay [3] (50 ppm, tomato late blight) turned out to be 35%; in assay [3] (100 ppm, tomato late blight) it was 98%. For the same compound, the “BPM control value (C.V.)” value in assay [4] (100 ppm, barley powdery mildew) amounted to 60%. The “RSB control value (C.V.)” value in assay [5] (100 ppm, rice sheath blight) is reported as 15%. Also, the “RCB control value (C.V.)” value is 90% in assay [6] (50 ppm, rice blast) and 95% in assay [6] (100 ppm, rice blast).
As to `CO/N=C(/C(=O)OC)c1ccccc1COc1ccc(F)cc1C=C(Cl)Cl` [Example 55, methyl-(E)-2-(2-((2-(2,2-dichlorovinyl)-4-fluorophenoxy)methyl)phenyl)-2-methoxyiminoacetate], the pest or weed control at 2 ppm came out at 100% in assay [1] (Puccinia recondita, 2 ppm); 99% in assay [3]; 100% in assay [4] (2 ppm); 90% in assay [5]; 100% in assay [6]. For the same compound, the pest or weed control at 10 ppm stood at 100% in assay [1] (Puccinia recondita, 10 ppm); 100% in assay [3]; 100% in assay [4] (10 ppm); 100% in assay [5]; 100% in assay [6]. Moreover, the pest or weed control at 50 ppm amounted to 100% in assay [1] (Puccinia recondita, 50 ppm); 25% in assay [2]; 100% in assay [3]; 100% in assay [4] (50 ppm); 100% in assay [5]; 100% in assay [6]. For the same compound, the pest or weed control at 100 ppm amounted to 100% in assay [1] (Puccinia recondita, 100 ppm); 75% in assay [2]; 100% in assay [3]; 100% in assay [4] (100 ppm); 100% in assay [5]; 100% in assay [6].
`CNC(=O)/C(=N/OC)c1ccccc1COc1c(OC)ccc(C=C(Br)Br)c1Br` [Example 76]: the “WLR control value (C.V.)” value in assay [1] (2 ppm) is listed as 95%; in assay [1] (10 ppm), 100%; in assay [1] (50 ppm), 100%; in assay [1] (100 ppm), 100%. Also, the “CGM control value (C.V.)” value in assay [2] amounted to 45%. Moreover, the “TLB control value (C.V.)” value in assay [3] (2 ppm) was found to be 70%; in assay [3] (10 ppm), 90%; in assay [3] (50 ppm), 98%; in assay [3] (100 ppm) it was 100%. Further, the “BPM control value (C.V.)” value in assay [4] (2 ppm) amounted to 95%; in assay [4] (10 ppm), 100%; in assay [4] (50 ppm), 100%; in assay [4] (100 ppm) it was 100%. Moreover, the “RSB control value (C.V.)” value was 65% in assay [5] (2 ppm), 98% in assay [5] (10 ppm), 100% in assay [5] (50 ppm) and 100% in assay [5] (100 ppm). For the same compound, the “RCB control value (C.V.)” value in assay [6] (2 ppm) amounted to 30%; in assay [6] (10 ppm), 90%; in assay [6] (50 ppm), 100%; in assay [6] (100 ppm), 100%.
On to `CO/N=C(/C(=O)OC)c1ccccc1COc1c(OC)ccc(C=C(Cl)Cl)c1Br` [Example 51, methyl-(E)-2-(2-((2-bromo-3-(2,2-dichlorovinyl)-6-methoxyphenoxy)methyl)phenyl)-2-methoxyiminoacetate], for which the pest or weed control at 2 ppm stood at 100% in assay [1] (2 ppm, wheat leaf rust); 90% in assay [3]; 100% in assay [4] (setting [7]); 90% in assay [5]; 90% in assay [6]. Further, the pest or weed control at 10 ppm in assay [1] (10 ppm, wheat leaf rust) was 100%; in assay [3], 97%; in assay [4] (setting [8]), 100%; in assay [5] it was 98%; in assay [6] it was 100%. For the same compound, the pest or weed control at 50 ppm was found to be 100% in assay [1] (50 ppm, wheat leaf rust); 100% in assay [3]; 100% in assay [4] (setting [9]); 100% in assay [5]; 100% in assay [6]. The pest or weed control at 100 ppm is 100% in assay [1] (100 ppm, wheat leaf rust); 75% in assay [2] (cucumber gray mold rot); 100% in assay [3]; 100% in assay [4] (setting [10]); 100% in assay [5]; 100% in assay [6].
